Square brackets hold non-standard residues; d marks the D form. Peptide text beside a SMILES is read from it. MeBmt = C/C=C/C[C@@H](C)[C@@H](O)[C@H](NC)C(=O)O; NMeI = CC[C@H](C)[C@H](NC)C(=O)O; NEtVal = CCN[C@H](C(=O)O)C(C)C; NMeL = CN[C@@H](CC(C)C)C(=O)O; NMeV = CN[C@H](C(=O)O)C(C)C; dHiv = CC(C)[C@@H](O)C(=O)O; dNMeA = CN[C@H](C)C(=O)O; Abu = CC[C@H](N)C(=O)O; Sar = CNCC(=O)O
Key:
[1] = system: hepatitis C virus genotype 1b Con1 replicon; experiment: HCV replicon assay, replicon RNA by RT-qPCR in Huh 9-13 cells; assay type: cell-based; conditions: 50% inhibition of HCV replicon replication, 3 dose-response curves
Description: For the evaluation of antiviral effects, assay medium was aspirated and the plates with dry monolayer were stored at −80° C. awaiting extraction. Following thawing of the plates at room temperature, the cell monolayer was lysed with 100 μl of cell-to-cDNA lysis buffer (Invitrogen). Lysis of the cells was allowed to proceed for 10 min at room temperature after which all liquid was transferred to a PCR plate (Axygen). The PCR plate was incubated for 15 min at 75° C. […] The lysate was diluted 1:2 with RNase/DNase-free water, after which 5 μl was transferred to the real-time PCR plate (Applied Biosystems).
Replicon RNA content was quantified using a real-time quantitative one-step RT-PCR method (RT-qPCR): Low Rox One-Step RT-qPCR master mix, Abgene). […] The fluorogenic probe was 5′-[sequence]-3′. The analysis of the samples were performed using a SDS7500F (Applied Biosystems, standard thermocycling profile: 30 min at 48° C., 10 min at 95° C., 40 cycles of 15 sec at 95° C. and 1 min at 60° C.) after which replicon RNA quantities were converted to percentage of untreated controls.

[2] = target: T1, sodium-taurocholate cotransporting polypeptide (NTCP) (Homo sapiens, UniProt Q14973); experiment: NTCP inhibition, taurocholate uptake in CHO cells; assay type: in vitro ADME; conditions: for NTCP fold Debio 025: IC50 ratio compared to Debio 025
T1 sequence (Q14973 1-349): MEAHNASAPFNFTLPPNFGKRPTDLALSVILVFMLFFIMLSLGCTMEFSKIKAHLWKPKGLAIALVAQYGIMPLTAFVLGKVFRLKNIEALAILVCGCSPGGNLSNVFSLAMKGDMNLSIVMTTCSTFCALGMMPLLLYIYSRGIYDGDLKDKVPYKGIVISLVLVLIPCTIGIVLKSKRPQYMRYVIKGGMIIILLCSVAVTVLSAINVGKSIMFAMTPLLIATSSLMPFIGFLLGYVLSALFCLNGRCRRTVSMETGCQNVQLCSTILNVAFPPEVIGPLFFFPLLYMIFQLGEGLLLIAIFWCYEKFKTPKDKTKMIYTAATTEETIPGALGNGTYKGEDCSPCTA

[3] = system: Concanavalin-A-induced T-cell proliferation; experiment: Concanavalin-A-induced T-cell proliferation assay (immunosuppression); assay type: cell-based; conditions: inhibition of Concanavalin-A-induced T-cell proliferation
Description: To determine whether the cycloundecadepsipepide compounds of the present invention have a non-immunosuppression activity, experiments were carried out that compared the dose-dependent inhibition of Concanavalin-A-induced T-cell proliferation (see Table 2).
The method of the assays were performed as described by Dayton et al. (1992. Mol. Pharmacol. 41. 671-676) and Mishell et al. (1980. Cell proliferation in selected methods in cellular immunology, V, XXIX, W.H. Freeman Co., San Francisco, Calif. 153-160).

[4] = target: organic anion transporting polypeptide 1B1 (OATP1B1) (Homo sapiens, UniProt Q9Y6L6)
Description: (§1) To determine whether the cycloundecadepsipeptide compounds of the present invention interact with hepatic transporters, experiments were carried out that compared the concentration-dependent inhibition towards the multidrug resistance associated protein 2 (MRP2), the organic anion transporting polypeptide 1B1 (OATP1B1), the bile salt export pump (BSEP) and the sodium-taurocholate cotransporting polypeptide (NTCP). These transporters are involved in the hepatobiliary circulation of endogenous compounds such as bile salts or bilirubin (for a review, see C. Pauli-Magnus et al, J. Hepatology, 2005, 43:342-357). Some of them also contribute to the elimination of xenobiotics.
OATP1B1 and NTCP assays were performed with Chinese hamster ovary (CHO) cells expressing these human uptake transporters. The amount of the transported probe substrate (estrone-3-sulfate and taurocholate for OATP1B1 and NTCP, respectively) was determined by liquid scintillation or fluorescent photometry after cell lysis.
(§2) The IC50 (defined as the concentration required for inhibiting the transport of the probe substrate by 50%, half maximal inhibitory concentration) of the compounds was derived from the concentration-response curve and compared to the IC50 of Debio 025 (IC50 ratio expressed as “fold Debio 025” in the tables).

[5] = target: bile salt export pump (BSEP) (Homo sapiens, UniProt O95342); conditions: for BSEP fold Debio 025: IC50 ratio compared to Debio 025
Description: as §1
(§3) MRP2 and BSEP were expressed by SOLVO Biotechnology in Spodoptera frugiperda (Sf9) ovarian cells, by infecting the insect cells with a recombinant baculovirus. The inhibition of the transport of the radioactive probe substrates (estradiol-17-beta-glucuronide and taurocholate for MRP2 and BSEP, respectively) into inside-out membrane vesicles, containing the transporter, was measured by scintillation counting.
as §2

[6] = target: multidrug resistance associated protein 2 (MRP2) (Homo sapiens, UniProt Q92887); conditions: for MRP2 fold Debio 025: IC50 ratio compared to Debio 025
Description: as §1, §3, §2

[7] = Cytostatic/cytotoxic effect, MTT (MTS) assay in Huh 9-13 cells; assay type: cell-based; conditions: metabolic activity reduced to 50% of untreated cells
From the text: Assays used Huh 9-13 containing the hepatitis C virus genotype 1b Con1 replicon (Lohmann et al. 2001. J. Virol. 75:1437-1449; and Lohmann et al. 1999. Science. 285:110-113). Cells were sub-cultured in cell growth medium DMEM supplemented with 10% FCS, 1% non-essential amino acids, 1% penicillin/streptomycin and 2% Geneticin (Invitrogen) at a ratio of 1:4-1:5 and grown for 3-4 days in 75 cm^2 tissue culture flasks (Techno Plastic Products), were harvested and seeded in assay medium (DMEM, 10% FCS, 1% non-essential amino acids, 1% penicillin/streptomycin) at a density of 5 000 cells/well (100 μl/well) in 96-well tissue culture microtiter plates (Falcon, Beckton Dickinson) for evaluation of cytostatic/cytotoxic and antiviral effect. The microtiter plates were incubated overnight (37° C., 5% CO2, 95-99% relative humidity), yielding a non-confluent cell monolayer.
Cell density and cytostatic effects were estimated in parallel cultures in regular 96-well plates (Beckton-Dickinson) using the MTT assay (CellTiter 96 AQueous Non-Radioactive Cell Proliferation Assay, Promega). In this assay, 3-(4,5-dimethyl-thiazol-2-yl)-5-(3-carboxymethoxy-phenyl)-2-(4-sulfophenyl)-2H-tetrazolium (MTS) is bioreduced to a formazan that is quantified at 498 nm in a plate reader. Formazan production is directly correlated with number of life cells. Absorbance was measured at a wavelength of 498 nm (Safire^2, Tecan) and optical densities (OD values) were converted to percentage of untreated controls.
The compounds were dissolved in DMSO at a concentration of 4 mmole/L. Stock solutions were immediately used to set up the experiments. The compounds were tested at 24 different concentrations ranging from 0.0001 μmole/L to 100 μmole/L. The highest concentration of DMSO in the assay was determined to be 2.5% (at 100 μM final concentration of the compound). During the assay setup, the DMSO percentage decreased concomitantly with decrease in concentration of the compound.
The EC50 (value derived from the dose-response curve) represents the concentration at which 50% inhibition of viral replication is observed. The CC50 (value derived from the dose-response curve) represents the concentration at which the metabolic activity of the cells is reduced to 50% of the metabolic activity of untreated cells.
Results from these experiments permitted calculation of EC50±SD (standard deviation or Std. Dev.), which is the effective concentration required to inhibit HCV replicon replication by 50%, and of CC50±SD (whenever possible), which is the concentration required that inhibits the proliferation of exponentially growing cells by 50%. EC50 and CC50±SD values were calculated respectively as the median of all the EC50, or CC50 values derived from the 3 individual dose-response curves. The selectivity index (SI), indicative of the therapeutic window of the compound was calculated as the ratio between CC50 and EC50.

[8] = human, Huh 9-13 cells containing the HCV genotype 1b Con1 replicon

Chain of multidrug resistance associated protein 2 (MRP2) (Q92887 whole entry): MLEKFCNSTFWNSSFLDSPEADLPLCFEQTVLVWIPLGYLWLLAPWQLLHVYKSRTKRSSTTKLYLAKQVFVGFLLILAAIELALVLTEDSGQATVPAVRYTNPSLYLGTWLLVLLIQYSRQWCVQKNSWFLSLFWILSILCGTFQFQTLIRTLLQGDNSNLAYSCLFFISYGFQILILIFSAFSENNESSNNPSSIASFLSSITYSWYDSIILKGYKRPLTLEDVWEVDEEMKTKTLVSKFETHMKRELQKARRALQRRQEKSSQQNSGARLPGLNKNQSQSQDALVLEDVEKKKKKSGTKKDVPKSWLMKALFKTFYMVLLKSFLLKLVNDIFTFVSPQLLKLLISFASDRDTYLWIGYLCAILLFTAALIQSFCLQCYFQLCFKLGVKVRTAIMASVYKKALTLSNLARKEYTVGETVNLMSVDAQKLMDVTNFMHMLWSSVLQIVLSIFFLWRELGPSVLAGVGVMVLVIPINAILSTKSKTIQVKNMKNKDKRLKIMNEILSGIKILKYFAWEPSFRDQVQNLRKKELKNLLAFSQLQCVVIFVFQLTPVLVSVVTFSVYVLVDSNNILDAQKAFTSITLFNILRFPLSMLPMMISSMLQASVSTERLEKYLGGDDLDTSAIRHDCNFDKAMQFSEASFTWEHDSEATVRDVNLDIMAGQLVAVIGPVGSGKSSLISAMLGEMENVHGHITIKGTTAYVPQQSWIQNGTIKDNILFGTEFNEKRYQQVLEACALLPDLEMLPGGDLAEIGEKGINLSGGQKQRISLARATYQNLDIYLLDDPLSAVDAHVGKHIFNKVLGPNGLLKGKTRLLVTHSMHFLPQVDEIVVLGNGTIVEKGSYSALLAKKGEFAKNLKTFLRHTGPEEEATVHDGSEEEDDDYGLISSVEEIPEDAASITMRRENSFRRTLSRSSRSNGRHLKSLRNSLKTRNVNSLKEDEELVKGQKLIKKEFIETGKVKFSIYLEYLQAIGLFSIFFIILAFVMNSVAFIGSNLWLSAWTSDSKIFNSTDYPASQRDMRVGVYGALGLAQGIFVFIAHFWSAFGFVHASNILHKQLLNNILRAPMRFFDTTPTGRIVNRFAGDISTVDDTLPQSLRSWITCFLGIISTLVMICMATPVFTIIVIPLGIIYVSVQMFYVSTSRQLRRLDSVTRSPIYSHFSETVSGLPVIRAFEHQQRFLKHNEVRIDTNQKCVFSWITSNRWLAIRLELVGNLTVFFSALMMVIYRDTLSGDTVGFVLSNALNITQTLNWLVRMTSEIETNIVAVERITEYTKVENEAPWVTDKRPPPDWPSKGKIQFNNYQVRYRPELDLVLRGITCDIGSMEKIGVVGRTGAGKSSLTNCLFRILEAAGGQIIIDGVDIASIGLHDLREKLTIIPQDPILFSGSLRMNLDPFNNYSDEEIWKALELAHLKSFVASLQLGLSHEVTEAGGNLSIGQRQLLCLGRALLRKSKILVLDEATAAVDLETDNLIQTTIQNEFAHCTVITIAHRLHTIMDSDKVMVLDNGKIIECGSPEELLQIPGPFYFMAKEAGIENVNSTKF
Chain of bile salt export pump (BSEP) (O95342 whole entry): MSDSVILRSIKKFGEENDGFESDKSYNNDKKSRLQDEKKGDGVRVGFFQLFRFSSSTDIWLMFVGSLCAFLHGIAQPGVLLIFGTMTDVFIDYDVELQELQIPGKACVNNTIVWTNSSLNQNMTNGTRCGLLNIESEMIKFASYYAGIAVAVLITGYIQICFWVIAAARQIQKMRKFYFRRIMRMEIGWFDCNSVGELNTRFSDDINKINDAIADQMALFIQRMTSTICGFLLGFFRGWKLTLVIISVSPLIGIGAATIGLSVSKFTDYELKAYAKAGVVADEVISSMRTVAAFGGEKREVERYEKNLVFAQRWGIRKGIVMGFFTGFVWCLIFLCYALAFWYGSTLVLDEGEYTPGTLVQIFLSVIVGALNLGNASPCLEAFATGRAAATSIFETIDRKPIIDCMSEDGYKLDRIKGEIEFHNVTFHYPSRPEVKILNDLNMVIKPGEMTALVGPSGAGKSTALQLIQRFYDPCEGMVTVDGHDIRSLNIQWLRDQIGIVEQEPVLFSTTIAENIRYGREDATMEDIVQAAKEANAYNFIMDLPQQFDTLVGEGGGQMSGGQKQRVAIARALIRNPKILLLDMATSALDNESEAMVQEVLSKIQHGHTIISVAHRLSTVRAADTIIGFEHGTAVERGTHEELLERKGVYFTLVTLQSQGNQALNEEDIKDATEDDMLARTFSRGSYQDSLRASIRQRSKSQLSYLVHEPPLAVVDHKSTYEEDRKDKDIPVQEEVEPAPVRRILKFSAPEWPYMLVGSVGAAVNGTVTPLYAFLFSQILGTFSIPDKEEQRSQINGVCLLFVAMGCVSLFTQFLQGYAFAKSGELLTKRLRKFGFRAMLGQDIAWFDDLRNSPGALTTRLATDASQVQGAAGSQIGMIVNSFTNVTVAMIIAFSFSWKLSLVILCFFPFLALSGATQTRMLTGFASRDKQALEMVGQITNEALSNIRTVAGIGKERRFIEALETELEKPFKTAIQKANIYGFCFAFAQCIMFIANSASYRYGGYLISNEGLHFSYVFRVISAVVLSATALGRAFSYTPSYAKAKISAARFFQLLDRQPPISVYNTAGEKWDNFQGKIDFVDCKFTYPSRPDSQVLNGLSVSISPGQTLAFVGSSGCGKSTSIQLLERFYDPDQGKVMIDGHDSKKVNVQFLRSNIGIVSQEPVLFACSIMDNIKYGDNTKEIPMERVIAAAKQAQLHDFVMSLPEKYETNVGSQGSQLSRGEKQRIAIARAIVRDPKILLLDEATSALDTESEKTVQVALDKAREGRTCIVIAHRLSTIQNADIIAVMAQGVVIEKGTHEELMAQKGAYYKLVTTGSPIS
Chain of organic anion transporting polypeptide 1B1 (OATP1B1) (Q9Y6L6 whole entry): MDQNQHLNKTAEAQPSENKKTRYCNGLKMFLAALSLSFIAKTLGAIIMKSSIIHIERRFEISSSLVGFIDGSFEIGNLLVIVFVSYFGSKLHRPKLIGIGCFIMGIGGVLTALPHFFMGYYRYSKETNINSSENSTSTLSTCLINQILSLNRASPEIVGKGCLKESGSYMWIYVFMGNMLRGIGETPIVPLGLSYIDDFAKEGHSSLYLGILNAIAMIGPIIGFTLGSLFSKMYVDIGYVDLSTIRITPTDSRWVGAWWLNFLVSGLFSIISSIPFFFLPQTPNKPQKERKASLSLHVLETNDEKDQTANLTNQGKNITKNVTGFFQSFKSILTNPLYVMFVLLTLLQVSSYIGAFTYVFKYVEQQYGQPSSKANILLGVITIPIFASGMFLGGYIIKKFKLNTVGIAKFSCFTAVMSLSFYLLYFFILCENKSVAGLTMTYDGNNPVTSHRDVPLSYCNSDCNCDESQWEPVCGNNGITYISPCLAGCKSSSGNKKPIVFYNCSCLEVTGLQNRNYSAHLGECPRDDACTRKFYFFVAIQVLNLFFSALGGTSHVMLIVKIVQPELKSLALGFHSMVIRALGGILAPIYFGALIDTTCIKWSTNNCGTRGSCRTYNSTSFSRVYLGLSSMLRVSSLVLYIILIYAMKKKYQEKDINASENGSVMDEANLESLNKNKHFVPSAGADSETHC

Compound	EC50 [1] [µM]	NTCP IC50 ([2]; probe taurocholate, CHO cells)	IC50 [3] [µM]	IC50 [4] [µM]	OATP1B fold Debio 025 [4]	IC50 [5] [µM]	BSEP fold Debio 025 [5]	MRP2 IC50 [6]	CC50 [7, 8] [µM]	NTCP fold Debio 025 [2]	IC50 ([2]; probe taurocholate, CHO cells) [µM]	IC50 [6] [µM]	MRP2 fold Debio 025 [6]	CC50 [7] [µM]
C/C=C/C[C@@H](C)[C@@H](O)[C@H]1C(=O)N[C@@H](CC)C(=O)N(C)[C@H](C)C(=O)N(C)[C@@H](C(C)C)C(=O)N[C@@H](CC(C)C)C(=O)N(C)[C@@H](CC(C)C)C(=O)NCC(=O)O[C@H](C(C)C)C(=O)N(C)[C@@H](CC(C)C)C(=O)N[C@@H](CC(C)C)C(=O)N(C)[C@@H](C(C)C)C(=O)N1C [(Ia), cyclo-(MeBmt-Abu-D-MeAla-MeVal-Leu-MeLeu-Gly-D-Hiv-MeLeu-Leu-MeVal)] (cyclo([Abu][dNMeA][NMeV]L[NMeL]G[dHiv][NMeL]L[NMeV][MeBmt]))	0.034	n.i.	2	18	0.02	0.4	0.60	n.i.	60.1					
C/C=C/C[C@@H](C)[C@@H](O)[C@H]1C(=O)N[C@@H](CC)C(=O)N(C)[C@H](C)C(=O)N(CC)[C@@H](C(C)C)C(=O)N[C@@H](CC(C)C)C(=O)N(C)[C@@H](CC(C)C)C(=O)N[C@@H](C)C(=O)O[C@H](C(C)C)C(=O)N(C)[C@@H](CC(C)C)C(=O)N[C@@H](CC(C)C)C(=O)N(C)[C@@H](C(C)C)C(=O)N1C [(Ib), cyclo-(MeBmt-Abu-D-MeAla-EtVal-Leu-MeLeu-Ala-D-Hiv-MeLeu-Leu-MeVal)] (cyclo(A[dHiv][NMeL]L[NMeV][MeBmt][Abu][dNMeA][NEtVal]L[NMeL]))	0.037		9.44	6.2	0.07	0.15	1.6	n.i.	52.3	0.05	65			
C/C=C/C[C@@H](C)[C@@H](O)[C@H]1C(=O)N[C@@H](C(C)C)C(=O)N(C)[C@H](C)C(=O)N(C)[C@@H](C(C)C)C(=O)N[C@@H]([C@@H](C)CC)C(=O)N(C)[C@@H](CC(C)C)C(=O)NCC(=O)O[C@H](C(C)C)C(=O)N(C)[C@@H](CC(C)C)C(=O)N[C@@H](CC(C)C)C(=O)N(C)[C@@H](C(C)C)C(=O)N1C [(Ic), cyclo-(MeBmt-Val-D-MeAla-MeVal-Ile-MeLeu-Gly-D-Hiv-MeLeu-Leu-MeVal)] (cyclo(G[dHiv][NMeL]L[NMeV][MeBmt]V[dNMeA][NMeV]I[NMeL]))	0.022		0.984	2.3	0.18	0.16	1.5		86.9	0.11	30	2.2	6.6	
C/C=C/C[C@@H](C)[C@@H](O)[C@H]1C(=O)N[C@@H](CC)C(=O)N(C)[C@H](C)C(=O)N(C)[C@@H](C(C)C)C(=O)N[C@@H]([C@@H](C)CC)C(=O)N(C)[C@@H](CC(C)C)C(=O)NCC(=O)O[C@H](C(C)C)C(=O)N(C)[C@@H](CC(C)C)C(=O)N[C@@H](CC(C)C)C(=O)N(C)[C@@H](C(C)C)C(=O)N1C [(Ig), cyclo-(MeBmt-Abu-D-MeAla-MeVal-Ile-MeLeu-Gly-D-Hiv-MeLeu-Leu-MeVal)] (cyclo([Abu][dNMeA][NMeV]I[NMeL]G[dHiv][NMeL]L[NMeV][MeBmt]))														67
C/C=C/C[C@@H](C)[C@@H](O)[C@H]1C(=O)N[C@@H](CC)C(=O)N(C)[C@H](C)C(=O)N(C)[C@@H]([C@@H](C)CC)C(=O)N[C@@H](CC(C)C)C(=O)N(C)[C@@H](CC(C)C)C(=O)NCC(=O)O[C@H](C(C)C)C(=O)N(C)[C@@H](CC(C)C)C(=O)N[C@@H](CC(C)C)C(=O)N(C)[C@@H](C(C)C)C(=O)N1C [(Ii), cyclo-(MeBmt-Abu-D-MeAla-MeIle-Leu-MeLeu-Gly-D-Hiv-MeLeu-Leu-MeVal)] (cyclo([Abu][dNMeA][NMeI]L[NMeL]G[dHiv][NMeL]L[NMeV][MeBmt]))														25.4
C/C=C/C[C@@H](C)[C@@H](O)[C@H]1C(=O)N[C@@H](C(C)C)C(=O)N(C)[C@H](C)C(=O)N(C)[C@@H](C(C)C)C(=O)N[C@@H](C(C)C)C(=O)N(C)CC(=O)NCC(=O)O[C@H](C(C)C)C(=O)N(C)[C@@H](CC(C)C)C(=O)N[C@@H](CC(C)C)C(=O)N(C)[C@@H](C(C)C)C(=O)N1C [(Ik), cyclo-(MeBmt-Val-D-MeAla-MeVal-Val-Sar-Gly-D-Hiv-MeLeu-Leu-MeVal)] (cyclo(G[dHiv][NMeL]L[NMeV][MeBmt]V[dNMeA][NMeV]V[Sar]))														9.8
C/C=C/C[C@@H](C)[C@@H](O)[C@H]1C(=O)N[C@@H](CC)C(=O)N(C)[C@H](C)C(=O)N(CC)[C@@H](C(C)C)C(=O)N[C@@H](C(C)C)C(=O)N(C)[C@@H](CC(C)C)C(=O)N[C@@H](C)C(=O)N[C@H](C)C(=O)N(C)[C@@H](CC(C)C)C(=O)N(C)[C@@H](CC(C)C)C(=O)N(C)[C@@H](C(C)C)C(=O)N1C [Debio 025, [D-MeAla]^3-[EtVal]^4-CsA, reference compound]	0.034			0.42	1	0.24	1		2.5	1	3.2	15	1	
Cyclosporin A [Cyclosporin A (CsA), reference compound]			0.006											

Reference: US8501683B2, “Cycloundecadepsipeptide compounds and use of said compounds as a medicament” (priority 2008, dated 2013)
